Target: Substance-P receptor (Homo sapiens, UniProt P25103)
Assay: Binding affinity towards Tachykinin receptor 1 expressed in CHO cells using [3H][Pro9]-SP as radioligand
Format: cell-based

Chain of Substance-P receptor (P25103 whole entry): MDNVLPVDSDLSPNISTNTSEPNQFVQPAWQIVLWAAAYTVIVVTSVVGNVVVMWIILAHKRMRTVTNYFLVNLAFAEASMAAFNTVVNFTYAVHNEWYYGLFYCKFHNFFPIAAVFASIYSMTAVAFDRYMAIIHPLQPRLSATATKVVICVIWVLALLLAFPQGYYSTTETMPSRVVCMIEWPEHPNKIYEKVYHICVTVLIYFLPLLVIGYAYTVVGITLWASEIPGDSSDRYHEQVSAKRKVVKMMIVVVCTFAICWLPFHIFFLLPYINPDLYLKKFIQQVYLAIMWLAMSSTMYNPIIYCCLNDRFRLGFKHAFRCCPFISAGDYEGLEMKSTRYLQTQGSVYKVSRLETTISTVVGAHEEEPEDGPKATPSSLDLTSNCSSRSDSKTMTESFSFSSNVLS

Ki [nM]	Compound
150	CNC(c1ccccc1)C1(NCc2ccccc2OC)CC1 (configuration not stated)
620	CNC(c1ccccc1)C1(NCc2cc(C(F)(F)F)cc(C(F)(F)F)c2)CC1 (racemic)

Source: ChEMBL document CHEMBL1134216, “Synthesis, modelling and NK1 antagonist evaluation of a non-rigid cyclopropane-containing analogue of CP-99,994” (Bioorg Med Chem Lett, 2001)
